{
  "source": "patent US6632799B2",
  "about": "“Injectable ready-to-use solutions containing an antitumor anthracycline glycoside” (Pharmacia & Upjohn Company, priority 1985, dated 2003)",
  "assay": "pH-stability profile at 55° C. of doxorubicin.HCl solutions in sterile water, 5% dextrose, 0.9% saline",
  "type": "physicochemical",
  "details": "for Doxorubicin.HCl % stability: 55° C.",
  "note": "Structures can show the parent of a compound that is named as a salt.",
  "data": [
    {"smiles": "COc1cccc2c1C(=O)c1c(O)c3c(c(O)c1C2=O)C[C@@](O)(C(=O)CO)C[C@@H]3O[C@H]1C[C@H](N)[C@H](O)[C@H](C)O1", "note": "[Doxorubicin.HCl, doxorubicin hydrochloride]", "values": [
      {"measurement": "Doxorubicin.HCl % stability", "setting": "5% dextrose, pH 2.0 buffer, 72 hours", "result": 38.4, "unit": "%"},
      {"measurement": "Doxorubicin.HCl % stability", "setting": "5% dextrose, pH 2.5 buffer, 0 hours", "result": 100.0, "unit": "%"},
      {"measurement": "Doxorubicin.HCl % stability", "setting": "5% dextrose, pH 2.5 buffer, 8 hours", "result": 96.4, "unit": "%"},
      {"measurement": "Doxorubicin.HCl % stability", "setting": "5% dextrose, pH 2.5 buffer, 16 hours", "result": 92.6, "unit": "%"},
      {"measurement": "Doxorubicin.HCl % stability", "setting": "5% dextrose, pH 2.5 buffer, 24 hours", "result": 89.5, "unit": "%"},
      {"measurement": "Doxorubicin.HCl % stability", "setting": "5% dextrose, pH 2.5 buffer, 34 hours", "result": 85.5, "unit": "%"},
      {"measurement": "Doxorubicin.HCl % stability", "setting": "5% dextrose, pH 2.5 buffer, 48 hours", "result": 76.2, "unit": "%"},
      {"measurement": "Doxorubicin.HCl % stability", "setting": "5% dextrose, pH 2.5 buffer, 72 hours", "result": 66.3, "unit": "%"},
      {"measurement": "Doxorubicin.HCl % stability", "setting": "5% dextrose, pH 3.0 buffer, 0 hours", "result": 100.0, "unit": "%"},
      {"measurement": "Doxorubicin.HCl % stability", "setting": "5% dextrose, pH 3.0 buffer, 16 hours", "result": 96.6, "unit": "%"},
      {"measurement": "Doxorubicin.HCl % stability", "setting": "5% dextrose, pH 3.0 buffer, 24 hours", "result": 92.7, "unit": "%"},
      {"measurement": "Doxorubicin.HCl % stability", "setting": "5% dextrose, pH 3.0 buffer, 48 hours", "result": 83.3, "unit": "%"},
      {"measurement": "Doxorubicin.HCl % stability", "setting": "5% dextrose, pH 3.0 buffer, 72 hours", "result": 76.4, "unit": "%"},
      {"measurement": "Doxorubicin.HCl % stability", "setting": "5% dextrose, pH 3.0 buffer, 96 hours", "result": 68.0, "unit": "%"},
      {"measurement": "Doxorubicin.HCl % stability", "setting": "5% dextrose, pH 3.0 buffer, 120 hours", "result": 61.1, "unit": "%"},
      {"measurement": "Doxorubicin.HCl % stability", "setting": "5% dextrose, pH 3.5 buffer, 0 hours", "result": 100.0, "unit": "%"},
      {"measurement": "Doxorubicin.HCl % stability", "setting": "5% dextrose, pH 3.5 buffer, 16 hours", "result": 95.7, "unit": "%"},
      {"measurement": "Doxorubicin.HCl % stability", "setting": "5% dextrose, pH 3.5 buffer, 24 hours", "result": 93.7, "unit": "%"},
      {"measurement": "Doxorubicin.HCl % stability", "setting": "5% dextrose, pH 3.5 buffer, 48 hours", "result": 81.8, "unit": "%"},
      {"measurement": "Doxorubicin.HCl % stability", "setting": "5% dextrose, pH 3.5 buffer, 72 hours", "result": 66.8, "unit": "%"},
      {"measurement": "Doxorubicin.HCl % stability", "setting": "5% dextrose, pH 3.5 buffer, 96 hours", "result": 61.6, "unit": "%"},
      {"measurement": "Doxorubicin.HCl % stability", "setting": "5% dextrose, pH 4.0 buffer, 0 hours", "result": 100.0, "unit": "%"},
      {"measurement": "Doxorubicin.HCl % stability", "setting": "5% dextrose, pH 4.0 buffer, 8 hours", "result": 95.5, "unit": "%"},
      {"measurement": "Doxorubicin.HCl % stability", "setting": "5% dextrose, pH 4.0 buffer, 16 hours", "result": 85.6, "unit": "%"},
      {"measurement": "Doxorubicin.HCl % stability", "setting": "5% dextrose, pH 4.0 buffer, 48 hours", "result": 65.5, "unit": "%"},
      {"measurement": "Doxorubicin.HCl % stability", "setting": "5% dextrose, pH 4.0 buffer, 72 hours", "result": 53.9, "unit": "%"},
      {"measurement": "Doxorubicin.HCl % stability", "setting": "5% dextrose, pH 5.0 buffer, 0 hours", "result": 100.0, "unit": "%"},
      {"measurement": "Doxorubicin.HCl % stability", "setting": "5% dextrose, pH 5.0 buffer, 8 hours", "result": 94.7, "unit": "%"},
      {"measurement": "Doxorubicin.HCl % stability", "setting": "5% dextrose, pH 5.0 buffer, 16 hours", "result": 83.2, "unit": "%"},
      {"measurement": "Doxorubicin.HCl % stability", "setting": "5% dextrose, pH 5.0 buffer, 24 hours", "result": 79.9, "unit": "%"},
      {"measurement": "Doxorubicin.HCl % stability", "setting": "5% dextrose, pH 5.0 buffer, 34 hours", "result": 70.4, "unit": "%"},
      {"measurement": "Doxorubicin.HCl % stability", "setting": "5% dextrose, pH 5.0 buffer, 48 hours", "result": 57.8, "unit": "%"},
      {"measurement": "Doxorubicin.HCl % stability", "setting": "5% dextrose, pH 5.5 buffer, 0 hours", "result": 100.0, "unit": "%"},
      {"measurement": "Doxorubicin.HCl % stability", "setting": "5% dextrose, pH 5.5 buffer, 8 hours", "result": 92.5, "unit": "%"},
      {"measurement": "Doxorubicin.HCl % stability", "setting": "5% dextrose, pH 5.5 buffer, 16 hours", "result": 73.8, "unit": "%"},
      {"measurement": "Doxorubicin.HCl % stability", "setting": "5% dextrose, pH 5.5 buffer, 24 hours", "result": 62.6, "unit": "%"},
      {"measurement": "Doxorubicin.HCl % stability", "setting": "5% dextrose, pH 5.5 buffer, 34 hours", "result": 54.8, "unit": "%"},
      {"measurement": "Kobs × 10^3", "setting": "sterile water, Acetate pH 4.0, 55° C.", "result": "269.8 1/days"},
      {"measurement": "Kobs × 10^3", "setting": "sterile water, Acetate pH 5.0, 55° C.", "result": "322.6 1/days"},
      {"measurement": "Kobs × 10^3", "setting": "sterile water, Acetate pH 5.5, 55° C.", "result": "415.4 1/days"},
      {"measurement": "Kobs × 10^3", "setting": "sterile water, Formate pH 3.5, 55° C.", "result": "96.7 1/days"},
      {"measurement": "Kobs × 10^3", "setting": "sterile water, Glycine-HCl pH 2.0, 55° C.", "result": "309.5 1/days"},
      {"measurement": "Kobs × 10^3", "setting": "sterile water, Glycine-HCl pH 2.5, 55° C.", "result": "138.3 1/days"},
      {"measurement": "Kobs × 10^3", "setting": "sterile water, Glycine-HCl pH 3.0, 55° C.", "result": "93.1 1/days"},
      {"measurement": "Doxorubicin.HCl % stability", "setting": "sterile water, pH 2.0 buffer, 0 hours", "result": 100.0, "unit": "%"},
      {"measurement": "Doxorubicin.HCl % stability", "setting": "sterile water, pH 2.0 buffer, 8 hours", "result": 93.6, "unit": "%"},
      {"measurement": "Doxorubicin.HCl % stability", "setting": "sterile water, pH 2.0 buffer, 16 hours", "result": 82.6, "unit": "%"},
      {"measurement": "Doxorubicin.HCl % stability", "setting": "sterile water, pH 2.0 buffer, 24 hours", "result": 76.9, "unit": "%"},
      {"measurement": "Doxorubicin.HCl % stability", "setting": "sterile water, pH 2.0 buffer, 48 hours", "result": 56.6, "unit": "%"},
      {"measurement": "Doxorubicin.HCl % stability", "setting": "sterile water, pH 2.0 buffer, 72 hours", "result": 39.6, "unit": "%"},
      {"measurement": "Doxorubicin.HCl % stability", "setting": "sterile water, pH 2.5 buffer, 0 hours", "result": 100.0, "unit": "%"},
      {"measurement": "Doxorubicin.HCl % stability", "setting": "sterile water, pH 2.5 buffer, 8 hours", "result": 96.7, "unit": "%"},
      {"measurement": "Doxorubicin.HCl % stability", "setting": "sterile water, pH 2.5 buffer, 16 hours", "result": 92.1, "unit": "%"},
      {"measurement": "Doxorubicin.HCl % stability", "setting": "sterile water, pH 2.5 buffer, 24 hours", "result": 86.2, "unit": "%"},
      {"measurement": "Doxorubicin.HCl % stability", "setting": "sterile water, pH 2.5 buffer, 48 hours", "result": 78.2, "unit": "%"},
      {"measurement": "Doxorubicin.HCl % stability", "setting": "sterile water, pH 3.0 buffer, 0 hours", "result": 100.0, "unit": "%"},
      {"measurement": "Doxorubicin.HCl % stability", "setting": "sterile water, pH 3.0 buffer, 8 hours", "result": 97.8, "unit": "%"},
      {"measurement": "Doxorubicin.HCl % stability", "setting": "sterile water, pH 3.0 buffer, 16 hours", "result": 93.9, "unit": "%"},
      {"measurement": "Doxorubicin.HCl % stability", "setting": "sterile water, pH 3.0 buffer, 24 hours", "result": 91.4, "unit": "%"},
      {"measurement": "Doxorubicin.HCl % stability", "setting": "sterile water, pH 3.0 buffer, 48 hours", "result": 84.7, "unit": "%"},
      {"measurement": "Doxorubicin.HCl % stability", "setting": "sterile water, pH 3.0 buffer, 72 hours", "result": 76.1, "unit": "%"},
      {"measurement": "Doxorubicin.HCl % stability", "setting": "sterile water, pH 3.0 buffer, 120 hours", "result": 62.8, "unit": "%"},
      {"measurement": "Doxorubicin.HCl % stability", "setting": "sterile water, pH 3.5 buffer, 0 hours", "result": 100.0, "unit": "%"},
      {"measurement": "Doxorubicin.HCl % stability", "setting": "sterile water, pH 3.5 buffer, 8 hours", "result": 95.8, "unit": "%"},
      {"measurement": "Doxorubicin.HCl % stability", "setting": "sterile water, pH 3.5 buffer, 16 hours", "result": 92.7, "unit": "%"},
      {"measurement": "Doxorubicin.HCl % stability", "setting": "sterile water, pH 3.5 buffer, 24 hours", "result": 90.4, "unit": "%"},
      {"measurement": "Doxorubicin.HCl % stability", "setting": "sterile water, pH 3.5 buffer, 48 hours", "result": 81.1, "unit": "%"},
      {"measurement": "Doxorubicin.HCl % stability", "setting": "sterile water, pH 3.5 buffer, 72 hours", "result": 75.6, "unit": "%"},
      {"measurement": "Doxorubicin.HCl % stability", "setting": "sterile water, pH 3.5 buffer, 120 hours", "result": 61.0, "unit": "%"},
      {"measurement": "Doxorubicin.HCl % stability", "setting": "sterile water, pH 4.0 buffer, 0 hours", "result": 100.0, "unit": "%"},
      {"measurement": "Doxorubicin.HCl % stability", "setting": "sterile water, pH 4.0 buffer, 8 hours", "result": 88.0, "unit": "%"},
      {"measurement": "Doxorubicin.HCl % stability", "setting": "sterile water, pH 4.0 buffer, 16 hours", "result": 82.7, "unit": "%"},
      {"measurement": "Doxorubicin.HCl % stability", "setting": "sterile water, pH 4.0 buffer, 24 hours", "result": 76.8, "unit": "%"},
      {"measurement": "Doxorubicin.HCl % stability", "setting": "sterile water, pH 4.0 buffer, 48 hours", "result": 57.4, "unit": "%"},
      {"measurement": "Doxorubicin.HCl % stability", "setting": "sterile water, pH 5.0 buffer, 0 hours", "result": 100.0},
      {"measurement": "Doxorubicin.HCl % stability", "setting": "sterile water, pH 5.0 buffer, 8 hours", "result": 90.3},
      {"measurement": "Doxorubicin.HCl % stability", "setting": "sterile water, pH 5.0 buffer, 16 hours", "result": 83.6},
      {"measurement": "Doxorubicin.HCl % stability", "setting": "sterile water, pH 5.0 buffer, 24 hours", "result": 74.9},
      {"measurement": "Doxorubicin.HCl % stability", "setting": "sterile water, pH 5.5 buffer, 0 hours", "result": 100.0, "unit": "%"},
      {"measurement": "Doxorubicin.HCl % stability", "setting": "sterile water, pH 5.5 buffer, 8 hours", "result": 88.3, "unit": "%"},
      {"measurement": "Doxorubicin.HCl % stability", "setting": "sterile water, pH 5.5 buffer, 16 hours", "result": 69.7, "unit": "%"},
      {"measurement": "Doxorubicin.HCl % stability", "setting": "sterile water, pH 5.5 buffer, 24 hours", "result": 60.0, "unit": "%"},
      {"measurement": "Doxorubicin.HCl % stability", "setting": "sterile water, pH 5.5 buffer, 48 hours", "result": 44.1, "unit": "%"}
    ]}
  ]
}
